What was measured:
[1] = tested on: ABCB11; experiment: CLZD_ABCB11: Change in expression of ABCB11 (primary human hepatocytes); format: cell-based; details: 24 hr, scale not given, looks like -log10 of molar active concentration, 0 = no activity
Outline: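 Five-point concentration series (0.004-40 µM) applied to primary human hepatocytes; 6/24/48 hr timepoints; transcript quantified by multiplexed nuclease protection.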

[2] = target: Human ER (ESR1) (Homo sapiens, UniProt P03372); experiment: NVS_NR_hER: Human ER 3H-Estradiol (cell-free HTS); format: binding; details: scale not given, looks like -log10 of molar active concentration, 0 = no activity
Source text: These are a collection of biochemical assays measuring binding constants and enzyme inhibition values. Chemicals were initially screened at a single concentration in duplicate wells at a concentration of 10 [drawing 63] M for cytochrome P-450 assays and 25 [drawing 64] M for all others. […] These assays were run by Caliper Life Sciences (Hanover, MD) under contract to EPA. Short assay descriptions are available at: http://www.caliperls.com/products/contract-research/in-vitro/.
Cell-free HTS Assays: A collection of biochemical assays measuring binding constants and enzyme inhibition values. […] These assays were run by Caliper Life Sciences (Hanover, MD) under contract to EPA. Short assay descriptions are available at http://www.caliperls.com/products/contract-research/in-vitro/. Values for all endpoints were imported into GeneData Screener (Basel, Switzerland) and normalised to solvent controls from the same plate as the tested compounds and expressed as percent of neutral control. Concentration-response curves were fit in GeneData Screener (Basel, Switzerland) Condeseo module using the Hill equation and AC50 values were determined. […] Detailed description of the methods, data and analysis methods for this dataset are described in a separate publication.

[3] = tested on: LXR (NR1H3); experiment: ATG_DR4_LXR_CIS: Factorial reporter gene assay (HepG2); format: cell-based, human; design: scale not given here; details: scale not given, looks like -log10 of molar active concentration, 0 = no activity
Procedure: A multiple reporter transcription unit (MRTU) library consisting of 48 transcription factor binding sites was transfected into the HepG2 human liver hepatoma cell line. In addition to the cis-acting reporter genes (CIS), a modification of the approach was used to generate a trans-system (TRANS) with a mammalian one-hybrid assay consisting of an additional 25 MRTU library reporting the activity of nuclear receptor super-family members. […] These assays were performed by Attagene Inc. (Morrisville NC) under contract to EPA.
In addition to the cis-acting reporter genes (CIS), a modification of the approach was used to generate a trans-system (TRANS) with a mammalian one-hybrid assay consisting of an additional 25 MRTU library reporting the activity of nuclear receptor super-family members. […] Chemicals were then tested in the CIS and TRANS assays at seven concentrations starting at the MTC and followed by three-fold serial dilutions. These assays were performed by Attagene Inc. (Morrisville NC) under contract to EPA. Detailed description of the methods, data and analysis methods for this dataset will be presented in a separate publication.

[4] = target: T1, PPARg (PPARG) (Homo sapiens, UniProt P37231); experiment: NCGC_PPARg_Agonist: GAL4 BLAM Reporter gene assay: PPARg; format: cell-based; design: expressed in transfected cells; host or cells: HEK293; details: agonist mode; scale not given, looks like -log10 of molar active concentration; 0 = no activity
T1 sequence (P37231 1-505): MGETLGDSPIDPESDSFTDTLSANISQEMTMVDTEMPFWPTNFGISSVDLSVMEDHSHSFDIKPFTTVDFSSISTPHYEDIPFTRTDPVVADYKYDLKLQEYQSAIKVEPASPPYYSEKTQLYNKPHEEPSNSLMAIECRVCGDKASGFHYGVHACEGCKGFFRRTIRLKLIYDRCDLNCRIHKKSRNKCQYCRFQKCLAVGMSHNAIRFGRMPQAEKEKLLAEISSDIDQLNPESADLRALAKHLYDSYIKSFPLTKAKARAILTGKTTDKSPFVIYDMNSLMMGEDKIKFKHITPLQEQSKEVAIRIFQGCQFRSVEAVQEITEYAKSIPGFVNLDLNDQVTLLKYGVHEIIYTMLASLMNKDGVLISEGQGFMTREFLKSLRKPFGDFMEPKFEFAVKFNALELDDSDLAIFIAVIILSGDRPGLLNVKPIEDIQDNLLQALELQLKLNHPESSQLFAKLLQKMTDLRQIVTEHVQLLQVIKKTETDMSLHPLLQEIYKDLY
Outline: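 Tox21 cell-based screens at NCGC using GAL4-fused receptor beta-lactamase reporters. Responses active only at the top concentration (above 50%) were discarded, and fits needed R^2 of at least 0.5.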

Sequence of Human ER (ESR1) (P03372 whole entry): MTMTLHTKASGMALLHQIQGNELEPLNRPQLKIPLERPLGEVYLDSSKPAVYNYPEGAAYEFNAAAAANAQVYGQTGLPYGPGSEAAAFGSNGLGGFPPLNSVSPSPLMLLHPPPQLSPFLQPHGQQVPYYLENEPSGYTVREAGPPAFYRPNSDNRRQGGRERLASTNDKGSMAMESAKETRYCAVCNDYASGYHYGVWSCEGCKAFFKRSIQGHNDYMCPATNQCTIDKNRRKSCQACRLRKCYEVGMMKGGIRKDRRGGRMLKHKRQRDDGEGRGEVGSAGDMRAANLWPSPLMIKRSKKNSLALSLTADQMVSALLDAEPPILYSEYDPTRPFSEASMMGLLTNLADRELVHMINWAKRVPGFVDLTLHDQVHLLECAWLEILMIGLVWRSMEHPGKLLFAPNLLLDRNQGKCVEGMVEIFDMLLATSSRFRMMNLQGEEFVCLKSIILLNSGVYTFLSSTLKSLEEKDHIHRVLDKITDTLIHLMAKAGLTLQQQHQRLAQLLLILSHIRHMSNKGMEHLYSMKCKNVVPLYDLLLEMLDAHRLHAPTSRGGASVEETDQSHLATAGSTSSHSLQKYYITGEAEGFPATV

COc1nc(C)nc(NC(=O)NS(=O)(=O)c2ccccc2Cl)n1 [r62]
0: CLZD_ABCB11_24 [1] | NVS_NR_hER [2] | ATG_DR4_LXR_CIS [3] | NCGC_PPARg_Agonist [4]

COc1nc(C)nc(NC(=O)NS(=O)(=O)c2ccccc2Cl)n1 [r63]
0: CLZD_ABCB11_24 [1] | NVS_NR_hER [2] | ATG_DR4_LXR_CIS [3] | NCGC_PPARg_Agonist [4]
